Molecules are shown by their SMILES.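 Cultured in 96-well plates, cells were exposed to test compound for 48 hours across five concentrations. Here, GI50 denotes the concentration required for 50% inhibition of growth.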 Activity calls are given as the source filed them. Rule as the data show it: active = GI50 up to about 1.1 µM and inactive = higher.

Some test systems named below: IGROV-1; OVCAR-3; OVCAR-5; A549; SK-MEL-2; SF-539; HCT-15; HCT-116; OVCAR-8; NCI-H522; NCI-H460; ACHN; RXF 393; COLO 205; CAKI-1; NCI/ADR-RES; PC-3; MDA-N; T47D.
Experiment in all cases: inhibition of tumour cell growth, NCI panel, 48 h

In the case of `O=[N+]([O-])c1ccc(COc2cccc3cccnc23)cc1`, the GI50 with IGROV-1 was 22.5 µM (inactive); with OVCAR-3 it was 5.94 µM (inactive); in the test with OVCAR-5, 38.5 µM (inactive); with A549, 31 µM (inactive); in the test with SK-MEL-2, 14.6 µM (inactive); in the test with SF-539, 29.6 µM (inactive). The GI50 in the test on HCT-15 was 7.1 µM; in the test with HCT-116 it was 25.2 µM (inactive); with OVCAR-8, 20.5 µM (inactive); with NCI-H522, 4.53 µM (inactive); in the test on NCI-H460 it was 1.23 µM (inactive); in the test with ACHN it was 19.6 µM (inactive). Further, the GI50 in the test on RXF 393 was 43.5 µM (inactive); in the test with COLO 205 it was 17.2 µM (inactive); in the test with CAKI-1, 30.3 µM (inactive).
Take `Nc1ncnc2c1ncn2C1CCC(CO)O1` (stereo unspecified): the GI50 in the test with IGROV-1, in the test with OVCAR-3, in the test with OVCAR-5, with A549, in the test with SK-MEL-2 and with SF-539 was > 100 µM (inactive) in each case. The GI50 with HCT-15 was greater than 100 µM; in the test with HCT-116, > 100 µM (inactive); in the test on NCI/ADR-RES, > 77.4 µM (inactive); in the test on OVCAR-8 it was > 79.4 µM (inactive); in the test with NCI-H522, > 100 µM (inactive); in the test on NCI-H460, > 100 µM (inactive). In addition, the GI50 with RXF 393, in the test with COLO 205 and with CAKI-1 was > 100 µM (inactive) throughout.
As for `Cc1cc(-c2ccc(C(=O)C(Cl)(Cl)Cl)[nH]2)on1`, the GI50 in the test on PC-3 is 29.9 µM (inactive); in the test with OVCAR-3 it was 25.1 µM (inactive); in the test on OVCAR-5, 22.6 µM (inactive); with A549, 33.5 µM (inactive); with SK-MEL-2, 23.9 µM (inactive); in the test on SF-539 it was 15.3 µM (inactive). In addition, the GI50 is 28 µM with HCT-15; 18 µM (inactive) in the test with HCT-116; 29.3 µM (inactive) in the test on NCI/ADR-RES; 32.7 µM (inactive) in the test on OVCAR-8; 21.2 µM (inactive) in the test on NCI-H522; 10.2 µM (inactive) with NCI-H460. Besides, the GI50 with ACHN is 27.9 µM (inactive); with MDA-N, 34.2 µM (inactive); in the test on RXF 393 it was 17.1 µM (inactive); in the test on T47D, 52.2 µM (inactive); in the test with COLO 205, 86.7 µM (inactive); in the test with CAKI-1, 18.1 µM (inactive).
Take `O=C(O)[C@@H](NS(=O)(=O)c1ccc(F)cc1)c1ccccc1`: the GI50 in the test with IGROV-1, with OVCAR-3, with OVCAR-5, in the test with A549, in the test on SK-MEL-2 and with SF-539 was > 100 µM (inactive) throughout. For the same compound, the GI50 with HCT-15 was greater than 100 µM; in the test on HCT-116, > 100 µM (inactive); with OVCAR-8 it was > 100 µM (inactive); with NCI-H522, > 100 µM (inactive); in the test with NCI-H460 it was > 100 µM (inactive); in the test with ACHN it was > 100 µM (inactive). Also, the GI50 in the test on RXF 393, in the test with COLO 205 and in the test on CAKI-1 was > 100 µM (inactive) in each case.
`CNC(=O)CCNC(=O)CCC(=O)N(C)C`: the GI50 in the test with PC-3, in the test on OVCAR-3, in the test on OVCAR-5, with A549, in the test with SK-MEL-2 and in the test on SF-539 was > 100 µM (inactive) in each case. For the same compound, the GI50 in the test on HCT-15 is greater than 100 µM; with HCT-116, > 100 µM (inactive); in the test with NCI/ADR-RES, > 100 µM (inactive); in the test on OVCAR-8 it was > 100 µM (inactive); with NCI-H522, 2.77 µM (inactive); with NCI-H460, > 100 µM (inactive). In addition, the GI50 in the test with ACHN, in the test on MDA-N, in the test with RXF 393, in the test with T47D, in the test with COLO 205 and in the test on CAKI-1 was > 100 µM (inactive) throughout.
`C=C(N=[N+]=[N-])c1cn(C2CC(O)C(CO)O2)c(=O)[nH]c1=O` (stereo unspecified): the GI50 with IGROV-1, in the test with OVCAR-3, in the test on OVCAR-5, with A549, in the test with SK-MEL-2 and in the test with SF-539 was > 100 µM (inactive) in each case. The GI50 in the test on HCT-15 is greater than 100 µM; in the test with HCT-116, > 100 µM (inactive); in the test with OVCAR-8, > 100 µM (inactive); with NCI-H522, > 100 µM (inactive); with NCI-H460 it was > 100 µM (inactive); with ACHN, > 100 µM (inactive). The GI50 in the test with RXF 393, with COLO 205 and in the test on CAKI-1 was > 100 µM (inactive) each time.
Take `N#CC(C#N)=C1/C(=C/C=C/C=C/C=C/c2ccc(N3CCCCC3)s2)S(=O)(=O)c2ccccc21`: the GI50 with PC-3, in the test on IGROV-1, in the test with OVCAR-3, with OVCAR-5, in the test with A549 and with SK-MEL-2 was > 100 µM (inactive) throughout. Further, the GI50 in the test on SF-539 is > 100 µM (inactive); in the test on HCT-15, greater than 100 µM; in the test with HCT-116 it was > 100 µM (inactive); in the test with NCI/ADR-RES, > 100 µM (inactive); with OVCAR-8, 67.3 µM (inactive); in the test with NCI-H522 it was 22.1 µM (inactive). In addition, the GI50 in the test with NCI-H460 is > 100 µM (inactive); with ACHN, > 100 µM (inactive); with RXF 393, > 100 µM (inactive); in the test on T47D, 80.9 µM (inactive); with COLO 205, > 100 µM (inactive); in the test with CAKI-1, > 100 µM (inactive).
Consider `COc1cc(C(=O)Nc2cc(C(N)=O)cc(OC)c2OC)cc(NC(=O)/C=C/c2ccccc2)c1OC`, for which the GI50 in the test with PC-3 was > 100 µM (inactive); in the test with IGROV-1, > 100 µM (inactive); in the test on OVCAR-3, 3.68 µM (inactive); in the test with OVCAR-5 it was > 100 µM (inactive); with A549, > 100 µM (inactive); in the test with SF-539, > 100 µM (inactive). Further, the GI50 was greater than 100 µM in the test on HCT-15; > 100 µM (inactive) in the test on NCI/ADR-RES; > 100 µM (inactive) with OVCAR-8; 3.43 µM (inactive) in the test with NCI-H522; 66.4 µM (inactive) in the test on NCI-H460; > 100 µM (inactive) with ACHN. In addition, the GI50 with MDA-N, in the test with RXF 393 and in the test on COLO 205 was > 100 µM (inactive) in each case.
For `CC1=[N+]([O-])C(C)(C)N(N=O)C1(C)C`, the GI50 with PC-3 was > 10 µM (inactive); in the test on OVCAR-3, > 10 µM (inactive); in the test with OVCAR-5, > 10 µM (inactive); with A549 it was > 10 µM (inactive); with SK-MEL-2 it was > 10 µM (inactive); in the test with HCT-15, greater than 10 µM. Besides, the GI50 with HCT-116, in the test on NCI/ADR-RES, in the test with OVCAR-8, in the test on NCI-H522, with NCI-H460 and in the test on ACHN was > 10 µM (inactive) throughout. Moreover, the GI50 in the test with MDA-N, in the test with RXF 393, with T47D, in the test on COLO 205 and in the test with CAKI-1 was > 10 µM (inactive) in each case.
Take `CC1(C)OC2OC(COC(=O)C=[N+]=[N-])C3OC(C)(C)OC3C2O1` (stereo unspecified): the GI50 in the test with PC-3 was > 100 µM (inactive); in the test on IGROV-1 it was > 100 µM (inactive); in the test on OVCAR-3, > 100 µM (inactive); with OVCAR-5 it was > 100 µM (inactive); with SK-MEL-2, > 100 µM (inactive); in the test with HCT-15, greater than 100 µM. Moreover, the GI50 in the test with HCT-116, in the test with NCI-H522, in the test on NCI-H460, with ACHN, in the test on MDA-N and with RXF 393 was > 100 µM (inactive) in each case. Further, the GI50 in the test with COLO 205 and with CAKI-1 was > 100 µM (inactive) throughout.
In the case of `O=Nc1c(-c2c(O)[nH]c3ccc(I)cc23)[nH]c2ccccc12`, the GI50 is 3.37 µM (inactive) in the test on PC-3; 2.13 µM (inactive) in the test on IGROV-1; 5.35 µM (inactive) in the test on OVCAR-3; 3.25 µM (inactive) in the test with OVCAR-5; 3.27 µM (inactive) in the test with A549; 1.99 µM (inactive) in the test on SK-MEL-2. The GI50 is 7.03 µM (inactive) in the test with SF-539; 3.21 µM in the test on HCT-15; 3.01 µM (inactive) in the test on HCT-116; 8.2 µM (inactive) with NCI/ADR-RES; 4.95 µM (inactive) in the test on OVCAR-8; 2.82 µM (inactive) in the test on NCI-H522. In addition, the GI50 in the test with NCI-H460 is 3.7 µM (inactive); in the test with ACHN, 2.53 µM (inactive); in the test with MDA-N, 4.97 µM (inactive); in the test with RXF 393, 2.36 µM (inactive); with COLO 205, 4.26 µM (inactive); with CAKI-1, 2.45 µM (inactive).
Consider `CSc1ccc2c(cc1=O)[C@@H](NC(C)=O)CCc1cc(O)c(O)c(O)c1-2`, for which the GI50 with PC-3 is 84.3 µM (inactive); with IGROV-1 it was 15.2 µM (inactive); with OVCAR-3, 18.6 µM (inactive); with OVCAR-5 it was 17.1 µM (inactive); in the test on A549, 20.1 µM (inactive); in the test on SK-MEL-2 it was 32.9 µM (inactive). The GI50 is 17.5 µM in the test on HCT-15; 30.6 µM (inactive) with HCT-116; 19.9 µM (inactive) in the test with NCI/ADR-RES; 19.1 µM (inactive) in the test with OVCAR-8; 16.2 µM (inactive) in the test on NCI-H522; 16.4 µM (inactive) in the test with NCI-H460. The GI50 in the test with ACHN is 22.3 µM (inactive); with MDA-N, 11.3 µM (inactive); with RXF 393, 72.4 µM (inactive); in the test with T47D, 60.4 µM (inactive); in the test with COLO 205, 30.4 µM (inactive); in the test with CAKI-1, 48.4 µM (inactive).

For the origin of these results see ChEMBL document CHEMBL1201862, “PubChem BioAssay data set” (2004).
